# From patent publication US20080226718A1, “Indole and Azaindole Derivatives For the Treatment of Inflammatory and Autoimmune Diseases” (Brane Discovery S.r.l, priority 2005, published 2008)
# Experiments:
# lymphocytes [1] = experiment: Chemokine-induced rapid adhesion of lymphocytes to ICAM-1 (MIP3β); assay type: cell-based; conditions: Homo sapiens, Lymphocyte, MIP3β 1 μM; for inhibition at 10 µM: [cpd] 10 μM, read-out: Inhibition of Adhesion (%) Lymphocytes (MIP3-β); for inhibition at 25 µM: [cpd] 25 μM; for inhibition at 25 µM / inhibition at 50 µM: read-out: Inhibition of Adhesion (%) Lymphocytes (MIP3-β) (converted); for inhibition at 50 µM: [cpd] 50 μM
# Description: (§1) Adhesion was performed on purified integrin ligands and was evaluated as reported in Constantin G. et al., Immunity, 16, 759-769, 2000. Briefly, primary naïve lymphocytes, polymorphonuclear neutrophils (PMNs) or monocytes were isolated form healthy donors. In other experiments, murine autoreactive T cells were obtained from SJL mice immunized with PLP139-151 as described (Piccio L. et al., J. Immunol, 168, 1940-1949, 2002). Cells were resuspended at 4×10^6/ml in PBS, CaCl2, MgCl2 1 mM, 10% FCS, pH 7.2. Adhesion assays were performed on eighteen well glass slides coated overnight at 4° C. with ligands for CR3 (fibrinogen) or LFA-1 (ICAM-1). 20 μl of cell suspension were added to the wells and stimulated at 37° C. with 5 μl of agonists prior to washing, fixation and computer-assisted enumeration of bound cells.
# (§2) Integrin activation was measured as induction of rapid adhesion triggered by the classical chemoattractant N-formyl-L-methionyl-L-leucyl-phenylalanine (fMLP) (100 nM) or by the CC chemokine MIP3β (CCL19, 1 μM). PMNs and monocytes were triggered to adhere to fibrinogen (CR3 ligand); naive human lymphocytes or murine encephalitogenic T cells were triggered to adhere to ICAM-1 (LFA-1 ligand). Triggered adhesion was evaluated after 2 min of stimulation under static conditions. The cells were pretreated at 37° C. for 30-60 min with the indicated concentrations of the test compound. Results are expressed as percentage of inhibition over control (=100%) and are the mean of three experiments in the case of human leukocytes. Results are expressed as mean counts and are the mean counts ±S.D of three experiments and are the mean of three experiments in the case of murine encephalitogenic lymphocytes.
# (§3) Integrin activation was measured as induction of rapid adhesion triggered by the “classical” chemoattractant fMLP (100 nM) or by the CC chemokine MIP3β (CCL19, 1 μM). PMNs were triggered to adhere to fibrinogen (CR3 ligand); lymphocytes were triggered to adhere to ICAM-1 (LFA-1 ligand).
# PMNs [2] = experiment: Chemokine-induced rapid adhesion of PMNs to fibrinogen (fMLP); assay type: cell-based; conditions: Homo sapiens, 2 min, fMLP 100 nM; for inhibition at 10 µM: [cpd] 10 μM; for inhibition at 25 µM: [cpd] 25 μM; for inhibition at 50 µM: [cpd] 50 μM
# Description: as §1, §2, §3
# monocytes [3] = experiment: Chemokine-induced rapid adhesion of monocytes to fibrinogen (fMLP); assay type: cell-based; conditions: Homo sapiens, Monocyte, fMLP 100 nM; for inhibition at 10 µM: [cpd] 10 μM; for inhibition at 25 µM: [cpd] 25 μM; for inhibition at 50 µM: [cpd] 50 μM
# Description: as §1, §2
# PMNs [4] = experiment: Chemotaxis assay, PMNs (fMLP); assay type: cell-based; conditions: Homo sapiens, fMLP 10 nM, 2 h; for inhibition at 10 µM: [cpd] 10 μM; for inhibition at 25 µM: [cpd] 25 μM; for inhibition at 50 µM: [cpd] 50 μM
# Description: (§4) PMNs and monocytes migration was assessed using 1 or 3-μm pore size transwells (Bio-Coat Becton-Dickinson), while lymphocytes by using 5-elm pore size transwells.
# (§5) Cells were in RPMI1640, containing 10% heat-inactivated Fetal Calf Serum (FCS) and 20 mM HEPES, pH 7.3, at 2×10^6/ml. 100 μl of cell suspension were added to the top well, and 600 μl of medium, containing chemoattractants and test compound, were added to the bottom well. Migration was evaluated after 2 h for PMNs and monocytes and after 4 h for lymphocytes. fMLP 10 nM (PMNs and monocytes) and MIP-3β 100 nM (lymphocytes) were utilized as chemoattractants. After fixation with 1.5% glutaraldehyde, migrated cells were counted by fluorescence-activated celli sorting using polystyrene beads (Polyscience) as an internal standard (Campbell J. J. et al. J. Cell. Biol. 134, 255-266, 1996; Laudanna C. et al. J. Biol. Chem. 273,46, 30306-30315, 1998).
# (§6) Results are expressed as percentage of inhibition over control (=100%), and are the mean of three experiments.
# lymphocytes [5] = experiment: Chemotaxis assay, lymphocytes (MIP-3β); assay type: cell-based; conditions: Homo sapiens, Lymphocyte, MIP-3β 100 nM, 4 h; for inhibition at 10 µM: [cpd] 10 μM, read-out: Inhibition of Chemotaxis (%) Lymphocytes (MIP3-β); for inhibition at 25 µM: [cpd] 25 μM; for inhibition at 25 µM / inhibition at 50 µM: read-out: Inhibition of Chemotaxis (%) Lymphocytes (MIP3-β) (converted); for inhibition at 50 µM: [cpd] 50 μM
# Description: as §4, §5, §6
# monocytes [6] = experiment: Chemotaxis assay, monocytes (fMLP); assay type: cell-based; conditions: Homo sapiens, Monocyte, fMLP 10 nM, 2 h; for inhibition at 10 µM: [cpd] 10 μM; for inhibition at 25 µM: [cpd] 25 μM; for inhibition at 50 µM: [cpd] 50 μM
# Description: as §4, §5, §6
# [7] = tested on: encephalitogenic lymphocytes; experiment: Chemokine-induced adhesion of murine encephalitogenic T cells to ICAM-1; assay type: cell-based, SJL mice; conditions: ICAM-1; for Chemokine-induced Adhesion in encephalitogenic lymphocytes, Mean counts ± S.D., in presence of MIP3-β stimulation: 1 μM CCL19 (MIP-3beta)
# Description: as §1, §2
# Chemokines trigger rapid arrest of lymphocytes in blood vessels through pertussis toxin-sensitive G protein coupled receptors. Rapid adhesion to purified ICAM-1 was measured in in vitro adhesion assays using control/untreated cells and lymphocytes treated with concentration between 5-50 μM for 1 h. Autoreactive lymphocytes were then stimulated with 1 μM CCL19 (MIP-3beta) for 3 min. […] These compounds were already efficient in blocking adhesion using a concentration of 5 μM for the cell treatment.
# [8] = tested on: encephalitogenic lymphocytes; experiment: Spontaneous adhesion of encephalitogenic T cells on purified ICAM-1; assay type: cell-based, SJL mice; conditions: Mus musculus, Lymphocyte, 1 h; for inhibition at 5 µM: [cpd] 5 μM, read-out: Inhibition of Spontaneous Adhesion in encephalitogenic lymphocytes (% of control/non-treated cells) ICAM-1; for inhibition at 10 µM: [cpd] 10 μM; for inhibition at 10 µM / inhibition at 50 µM: read-out: Inhibition of Spontaneous Adhesion in encephalitogenic lymphocytes (% of control/non-treated cells) ICAM-1 (converted); for inhibition at 50 µM: [cpd] 50 μM
# Description: Spontaneous adhesion of encephalitogenic lymphocytes was measured in adhesion assays on purified ICAM-1 and VCAM-1 as previously described (Constantin G. et al., J. Immunol. 162, 1144-1149, 1999). Autoreactive T cells were obtained from SJL mice immunized with PLP139-151 as described (Piccio L. et al., J. Immunol. 168, 1940-1949, 2002). Lymphocytes were treated with test compound at concentrations between 5-100 μM for 1 h, while control/untreated cells were treated with vehicle (DMSO). Results are expressed as percentage of inhibition over control (=100%) ±S.D and are the mean of three-four experiments.
# ICAM-1 and VCAM-1 are adhesion molecules from the family of immunoglobulins and control the migration of lymphocytes through the endothelium during inflammatory responses. Encephalitogenic T cells are activated lymphocytes displaying spontaneous adhesion on ICAM-1 and VCAM-1 and have increased migration capacities in inflammation sites. Spontaneous adhesion of encephalitogenic lymphocytes was measured in adhesion assays on purified ICAM-1 and VCAM-1 as described in the method.
smiles,measurement,setting,value
COc1ccc(-c2c(C#N)n(CCCN(C)C)c3cc(OC)c(OC)cc23)cc1 [Example 55],inhibition at 10 µM,lymphocytes [1],80%
same,inhibition at 25 µM,lymphocytes [1],91.9%
same,inhibition at 50 µM,lymphocytes [1],97%
same,inhibition at 10 µM,PMNs [2],8.4%
same,inhibition at 25 µM,PMNs [2],19%
same,inhibition at 50 µM,PMNs [2],27.4%
same,inhibition at 10 µM,monocytes [3],7.7%
same,inhibition at 25 µM,monocytes [3],38.5%
same,inhibition at 50 µM,monocytes [3],97.9%
same,inhibition at 10 µM,PMNs [4],79.4%
same,inhibition at 25 µM,PMNs [4],94.2%
same,inhibition at 50 µM,PMNs [4],96.8%
same,inhibition at 10 µM,lymphocytes [5],43.7%
same,inhibition at 25 µM,lymphocytes [5],84.2%
same,inhibition at 50 µM,lymphocytes [5],91.2%
same,inhibition at 10 µM,monocytes [6],54.6%
same,inhibition at 25 µM,monocytes [6],89.2%
same,inhibition at 50 µM,monocytes [6],92.9%
same,"Chemokine-induced Adhesion in encephalitogenic lymphocytes, Mean counts ± S.D., in presence of MIP3-β stimulation",[7]; [cpd] 10 μM,98.3 ± 13.7
same,"Adhesion in encephalitogenic lymphocytes, Mean counts ± S.D., in absence of MIP3-β stimulation",[7]; [cpd] 10 μM,53.5 ± 3.5
same,"Chemokine-induced Adhesion in encephalitogenic lymphocytes, Mean counts ± S.D., in presence of MIP3-β stimulation",[7]; [cpd] 50 μM,46.9 ± 6.2
same,"Adhesion in encephalitogenic lymphocytes, Mean counts ± S.D., in absence of MIP3-β stimulation",[7]; [cpd] 50 μM,13.2 ± 3.7
same,inhibition at 5 µM,[8],7.6%
same,inhibition at 10 µM,[8],12.4%
same,inhibition at 50 µM,[8],96.4%
COc1cc2[nH]c(-c3nnc[nH]3)c(-c3ccccc3)c2cc1OC [Example 58],inhibition at 10 µM,lymphocytes [1],92.1%
same,inhibition at 25 µM,lymphocytes [1],93.9%
same,inhibition at 50 µM,lymphocytes [1],94.7%
same,inhibition at 10 µM,PMNs [2],33.1%
same,inhibition at 25 µM,PMNs [2],45%
same,inhibition at 50 µM,PMNs [2],61.4%
same,inhibition at 10 µM,monocytes [3],6.8%
same,inhibition at 25 µM,monocytes [3],10.6%
same,inhibition at 50 µM,monocytes [3],16.6%
same,inhibition at 10 µM,PMNs [4],53.9%
same,inhibition at 25 µM,PMNs [4],87.5%
same,inhibition at 50 µM,PMNs [4],97.9%
same,inhibition at 10 µM,lymphocytes [5],49.3%
same,inhibition at 25 µM,lymphocytes [5],82.9%
same,inhibition at 50 µM,lymphocytes [5],92.2%
same,inhibition at 10 µM,monocytes [6],51.7%
same,inhibition at 25 µM,monocytes [6],87.5%
same,inhibition at 50 µM,monocytes [6],97.8%
same,"Chemokine-induced Adhesion in encephalitogenic lymphocytes, Mean counts ± S.D., in presence of MIP3-β stimulation",[7]; [cpd] 10 μM,73.2 ± 5.5
same,"Adhesion in encephalitogenic lymphocytes, Mean counts ± S.D., in absence of MIP3-β stimulation",[7]; [cpd] 10 μM,48.7 ± 6.5
same,"Chemokine-induced Adhesion in encephalitogenic lymphocytes, Mean counts ± S.D., in presence of MIP3-β stimulation",[7]; [cpd] 50 μM,46.8 ± 4.7
same,"Adhesion in encephalitogenic lymphocytes, Mean counts ± S.D., in absence of MIP3-β stimulation",[7]; [cpd] 50 μM,19.8 ± 5.8
same,inhibition at 5 µM,[8],40.7%
same,inhibition at 10 µM,[8],49.5%
same,inhibition at 50 µM,[8],95.6%
CCOC(=O)CCc1[nH]c2cc(OC)c(OC)cc2c1-c1ccc(OC)cc1 [Example 22],inhibition at 10 µM,lymphocytes [1],65%
same,inhibition at 25 µM,lymphocytes [1],95.6%
same,inhibition at 50 µM,lymphocytes [1],97.1%
same,inhibition at 10 µM,PMNs [2],2.6%
same,inhibition at 25 µM,PMNs [2],13.8%
same,inhibition at 50 µM,PMNs [2],32.6%
same,inhibition at 10 µM,monocytes [3],9.5%
same,inhibition at 25 µM,monocytes [3],29.6%
same,inhibition at 50 µM,monocytes [3],42.6%
same,inhibition at 10 µM,PMNs [4],56.9%
same,inhibition at 25 µM,PMNs [4],88.7%
same,inhibition at 50 µM,PMNs [4],97.8%
same,inhibition at 10 µM,lymphocytes [5],47.9%
same,inhibition at 25 µM,lymphocytes [5],84.6%
same,inhibition at 50 µM,lymphocytes [5],94.7%
same,inhibition at 10 µM,monocytes [6],23.7%
same,inhibition at 25 µM,monocytes [6],80.1%
same,inhibition at 50 µM,monocytes [6],96.4%
same,"Chemokine-induced Adhesion in encephalitogenic lymphocytes, Mean counts ± S.D., in presence of MIP3-β stimulation",[7]; [cpd] 10 μM,74.1 ± 6.4
same,"Adhesion in encephalitogenic lymphocytes, Mean counts ± S.D., in absence of MIP3-β stimulation",[7]; [cpd] 10 μM,44.2 ± 5.7
same,"Chemokine-induced Adhesion in encephalitogenic lymphocytes, Mean counts ± S.D., in presence of MIP3-β stimulation",[7]; [cpd] 50 μM,48.0 ± 6.4
same,inhibition at 5 µM,[8],39.9%
same,inhibition at 10 µM,[8],61.3%
same,inhibition at 50 µM,[8],94.7%
COc1ccc(-c2c(C#N)n(CCN(C)C)c3cc(OC)c(OC)cc23)cc1 [Example 18],inhibition at 10 µM,lymphocytes [1],66.3%
same,inhibition at 25 µM,lymphocytes [1],91.4%
same,inhibition at 50 µM,lymphocytes [1],95.1%
same,inhibition at 10 µM,PMNs [2],2.2%
same,inhibition at 25 µM,PMNs [2],10.4%
same,inhibition at 50 µM,PMNs [2],26.7%
same,inhibition at 10 µM,monocytes [3],7.8%
same,inhibition at 25 µM,monocytes [3],14.7%
same,inhibition at 50 µM,monocytes [3],31.2%
same,inhibition at 10 µM,PMNs [4],52.3%
same,inhibition at 25 µM,PMNs [4],77.6%
same,inhibition at 50 µM,PMNs [4],91.2%
same,inhibition at 10 µM,lymphocytes [5],51%
same,inhibition at 25 µM,lymphocytes [5],86.7%
same,inhibition at 50 µM,lymphocytes [5],92.3%
same,inhibition at 10 µM,monocytes [6],17.3%
same,inhibition at 25 µM,monocytes [6],62.1%
same,inhibition at 50 µM,monocytes [6],84.5%
same,inhibition at 5 µM,[8],28.7%
same,inhibition at 10 µM,[8],36.8%
same,inhibition at 50 µM,[8],96.9%
